Laboratory results from the NIST ThermoML archive (doi:10.1016/j.tca.2013.05.017).
Several values for one entry are separate records, joined by “and”; a condition that tells them apart may be missing. Equal values may be shown once.

Test: molar heat capacity at constant pressure
Details: 101.33 kPa, Crystal 2, Small (less than 1 g) adiabatic calorimetry

O=S(=O)([O-])[O-].[Sr+2] [sulfuric acid, strontium salt (1:1)]
Details | molar heat capacity at constant pressure
145.71 K | 68.41 J/K/mol
145.74 K | 68.47 J/K/mol
146.11 K | 68.55 J/K/mol
148.91 K | 69.29 J/K/mol
148.95 K | 69.42 J/K/mol
149.31 K | 69.49 J/K/mol
150 K | 69.86 J/K/mol
152.12 K | 70.28 J/K/mol
152.16 K | 70.25 J/K/mol
152.52 K | 70.41 J/K/mol
155.34 K | 71.05 J/K/mol
155.38 K | 71.08 J/K/mol
155.74 K | 71.27 J/K/mol
158.56 K | 71.97 J/K/mol
158.6 K | 72 J/K/mol
158.97 K | 72.09 J/K/mol
160 K | 72.51 J/K/mol
161.8 K | 72.79 J/K/mol
161.84 K | 72.83 J/K/mol
162.22 K | 72.92 J/K/mol
165.05 K | 73.58 J/K/mol
165.09 K | 73.59 J/K/mol
165.46 K | 73.73 J/K/mol
168.3 K | 74.28 J/K/mol
168.34 K | 74.31 J/K/mol
168.72 K | 74.49 J/K/mol
170 K | 74.99 J/K/mol
171.55 K | 75.15 J/K/mol
171.6 K | 75.19 J/K/mol
171.99 K | 75.27 J/K/mol
174.82 K | 75.93 J/K/mol
174.86 K | 75.97 J/K/mol
175.25 K | 76.02 J/K/mol
178.09 K | 76.68 J/K/mol
178.13 K | 76.74 J/K/mol
178.53 K | 76.77 J/K/mol
180 K | 77.33 J/K/mol
181.37 K | 77.42 J/K/mol
181.41 K | 77.48 J/K/mol
181.81 K | 77.53 J/K/mol
184.66 K | 78.14 J/K/mol
184.69 K | 78.22 J/K/mol
185.09 K | 78.29 J/K/mol
187.96 K | 78.91 J/K/mol
187.99 K | 78.94 J/K/mol
188.38 K | 78.97 J/K/mol
190 K | 79.65 J/K/mol
191.26 K | 79.72 J/K/mol
191.28 K | 79.71 J/K/mol
191.67 K | 79.8 J/K/mol
194.56 K | 80.51 J/K/mol and 80.47 J/K/mol
194.96 K | 80.64 J/K/mol
197.83 K | 81.24 J/K/mol
197.85 K | 81.22 J/K/mol
198.25 K | 81.33 J/K/mol
200 K | 81.87 J/K/mol
201.09 K | 81.92 J/K/mol
201.14 K | 81.8 J/K/mol
201.53 K | 81.9 J/K/mol
204.35 K | 82.54 J/K/mol
204.42 K | 82.41 J/K/mol
204.81 K | 82.55 J/K/mol
207.6 K | 83.18 J/K/mol
207.7 K | 82.95 J/K/mol
208.08 K | 83.16 J/K/mol
210 K | 83.8 J/K/mol
210.83 K | 83.81 J/K/mol
210.94 K | 83.69 J/K/mol
211.34 K | 83.83 J/K/mol
214.05 K | 84.44 J/K/mol
214.18 K | 84.34 J/K/mol
214.58 K | 84.5 J/K/mol
217.26 K | 85.04 J/K/mol
217.41 K | 84.95 J/K/mol
217.8 K | 85.11 J/K/mol
220 K | 85.76 J/K/mol
220.45 K | 85.67 J/K/mol
220.61 K | 85.61 J/K/mol
221.01 K | 85.74 J/K/mol
223.62 K | 86.31 J/K/mol
223.8 K | 86.22 J/K/mol
224.21 K | 86.36 J/K/mol
226.78 K | 86.94 J/K/mol
226.98 K | 86.85 J/K/mol
227.39 K | 86.96 J/K/mol
229.93 K | 87.58 J/K/mol
230 K | 87.75 J/K/mol
230.13 K | 87.48 J/K/mol
230.55 K | 87.57 J/K/mol
233.05 K | 88.24 J/K/mol
233.27 K | 88.13 J/K/mol
233.75 K | 88.27 J/K/mol
236.17 K | 88.83 J/K/mol
236.39 K | 88.63 J/K/mol
236.88 K | 88.89 J/K/mol
239.32 K | 89.46 J/K/mol
239.54 K | 89.39 J/K/mol
239.99 K | 89.5 J/K/mol
240 K | 89.75 J/K/mol
242.4 K | 90.05 J/K/mol
242.63 K | 89.95 J/K/mol
243.09 K | 90.06 J/K/mol
245.47 K | 90.64 J/K/mol
245.71 K | 90.56 J/K/mol
246.17 K | 90.67 J/K/mol
248.53 K | 91.22 J/K/mol
248.77 K | 91.15 J/K/mol
249.24 K | 91.23 J/K/mol
250 K | 91.7 J/K/mol
251.58 K | 91.85 J/K/mol
251.81 K | 91.78 J/K/mol
252.29 K | 91.85 J/K/mol
254.61 K | 92.43 J/K/mol
254.84 K | 92.37 J/K/mol
255.33 K | 92.47 J/K/mol
257.63 K | 93 J/K/mol
257.87 K | 92.94 J/K/mol
258.36 K | 93.06 J/K/mol
260 K | 93.66 J/K/mol
260.65 K | 93.58 J/K/mol
260.88 K | 93.56 J/K/mol
261.38 K | 93.65 J/K/mol
263.66 K | 94.16 J/K/mol
263.89 K | 94.13 J/K/mol
264.39 K | 94.26 J/K/mol
266.66 K | 94.77 J/K/mol
266.89 K | 94.7 J/K/mol
267.4 K | 94.85 J/K/mol
269.66 K | 95.39 J/K/mol
269.89 K | 95.3 J/K/mol
270 K | 95.59 J/K/mol
270.4 K | 95.47 J/K/mol
272.64 K | 95.96 J/K/mol
272.87 K | 95.81 J/K/mol
273.15 K | 96.15 J/K/mol
273.39 K | 95.92 J/K/mol
275.63 K | 96.38 J/K/mol
275.85 K | 96.25 J/K/mol
276.38 K | 96.39 J/K/mol
278.61 K | 96.87 J/K/mol
278.83 K | 96.75 J/K/mol
279.36 K | 96.87 J/K/mol
280 K | 97.3 J/K/mol
281.59 K | 97.38 J/K/mol
281.8 K | 97.23 J/K/mol
282.43 K | 97.36 J/K/mol
284.56 K | 97.83 J/K/mol
284.76 K | 97.73 J/K/mol
285.4 K | 97.91 J/K/mol
287.65 K | 98.39 J/K/mol
287.81 K | 98.24 J/K/mol
288.36 K | 98.43 J/K/mol
290 K | 98.96 J/K/mol
290.61 K | 98.91 J/K/mol
290.76 K | 98.75 J/K/mol
291.32 K | 98.96 J/K/mol
293.57 K | 99.37 J/K/mol
293.71 K | 99.22 J/K/mol
294.28 K | 99.43 J/K/mol
296.52 K | 99.84 J/K/mol
296.64 K | 99.69 J/K/mol
297.22 K | 99.88 J/K/mol
298.15 K | 100.3 J/K/mol
299.46 K | 100.34 J/K/mol
299.56 K | 100.14 J/K/mol
300 K | 100.59 J/K/mol
300.17 K | 100.26 J/K/mol
302.4 K | 100.79 J/K/mol
302.48 K | 100.58 J/K/mol
303.1 K | 100.8 J/K/mol
305.33 K | 101.19 J/K/mol
305.39 K | 101 J/K/mol
306.03 K | 101.22 J/K/mol
308.26 K | 101.58 J/K/mol
308.3 K | 101.41 J/K/mol
308.95 K | 101.59 J/K/mol
310 K | 102.03 J/K/mol
311.18 K | 102.01 J/K/mol
311.19 K | 101.81 J/K/mol
311.87 K | 101.99 J/K/mol
314.08 K | 102.29 J/K/mol
314.09 K | 102.44 J/K/mol
314.78 K | 102.4 J/K/mol
316.97 K | 102.72 J/K/mol
316.99 K | 102.82 J/K/mol
317.69 K | 102.79 J/K/mol
319.85 K | 103.14 J/K/mol
319.89 K | 103.15 J/K/mol
320 K | 103.44 J/K/mol
320.59 K | 103.18 J/K/mol
322.73 K | 103.57 J/K/mol
322.78 K | 103.57 J/K/mol
